Laboratory results from US20190231748A1, “COMPOSITION FOR VAGINA AND ANTIMICROBIAL AGENT COMBINATION FOR USE IN PREPARING COMPOSITION FOR VAGINA” (Shenzhen Eulikan Biotechnology Co., Ltd., priority 2016, published 2019).

Key:
Type in all cases: cell-based
[1] = system: Lactococcus lactis and Lactobacillus jensenii; experiment: pH of test gel after co-culture of Lactococcus lactis and Lactobacillus jensenii; settings: cultivated 32 hours
Text: (§1) 2.1 Experimental strains: one Lactococcus lactis strain and one Lactobacillus jensenii strain, both were clinical isolates.
(§2) The pH value was adjusted to 5.0.
(§3) 2.4 Experimental procedure: the test gel tubes containing different concentrations of antimicrobial agents, as shown in Tables 1 to 6 were inoculated with 100 microliters of Lactobacillus lactis suspension and 100 microliters of Lactobacillus jensenii suspension at the same time. The turbidities of both suspensions were 0.5 MCF. Then the tubes were cultivated at 37° C. and under 5 percent CO2 for 32 hours. Then the changes of the pH values of gels were tested. The gels were smeared, Gram stained, and microscopically examined for the morphology and quantity of bacteria.

[2] = system: Lactobacillus jensenii; experiment: Gram-stained smear of co-culture gel, Gram-positive rods (G+b); settings: cultivated 32 hours
Text: as §1, §2, §3

[3] = system: Lactococcus lactis; experiment: Gram-stained smear of co-culture gel, Gram-positive cocci (G+c); settings: for Smear G^+c: cultivated 32 hours
Text: as §1, §2, §3

[4] = system: nine strains of Candida albicans; experiment: Growth of Candida in enrichment broth after 24 hours, clinical strains; parameters: key to growth of Candida albicans, strain 1 / growth of Candida albicans, strain 2 / growth of Candida albicans, strain 3 / growth of Candida albicans, strain 4 / growth of Candida albicans, strain 5 / growth of Candida albicans, strain 6 / growth of Candida albicans, strain 7 / growth of Candida albicans, strain 8 / growth of Candida albicans, strain 9: +: means the growth of organisms; −: means no growth of organisms; settings: enrichment broth, 37° C. for 24 hours
Text: b. Enrichment broth: which contained 1 percent of yeast extract powder, 9 percent of sucrose, 0.025 percent of manganese sulfate (MnSO4.4H2O), 0.058 percent of magnesium sulfate (MgSO4.7H2O), and 0.9 percent of lactic acid, the pH value of the broth was adjusted to 4.5, and the enrichment broth was sterilized for later use;
(2) Experimental groups: the requirements of aseptic operation technique were strictly followed so to prepare the sterile test tubes;
a. sodium benzoate group: each test tube contained 5 milliliters enrichment broth, and was added in 0.025 percent (weight/volume) of sodium benzoate;
b. 2-phenylethanol group: each test tube contained 5 milliliters enrichment broth, and was added in 0.050 percent (weight/volume) of 2-phenylethanol;
c. sodium propionate group: each test tube contained 5 milliliters enrichment broth, and was added in 0.125 percent (weight/volume) of sodium propionate;
d. “a group of the combinations of sodium benzoate and sodium propionate”: each test tube contained 5 milliliters enrichment broth, and was added in 0.025 percent (weight/volume) of sodium benzoate and 0.125 percent (weight/volume) of sodium propionate;
e. “a group of the combinations of sodium benzoate and 2-phenylethanol”: each test tube contained 5 milliliters enrichment broth, and was added in 0.025 percent (weight/volume) of sodium benzoate and 0.050 percent (weight/volume) of 2-phenylethanol;
f. “a group of the combinations of sodium propionate and 2-phenylethanol”: each test tube contained 5 milliliters enrichment broth, and was added in 0.125 percent (weight/volume) of sodium propionate and 0.050 percent (weight/volume) of 2-phenylethanol;
g. “a group of the combinations of sodium benzoate, sodium propionate and 2-phenylethanol”: each test tube contained 5 milliliters enrichment broth, and was added in 0.025 percent (weight/volume) of sodium benzoate, 0.125 percent (weight/volume) of sodium propionate and 0.050 percent (weight/volume) of 2-phenylethanol;
h. positive control: the control tube of enrichment broth without adding in 2-phenylethanol, sodium benzoate, and sodium propionate; but inoculated the suspension of Candida albicans;
i. negative control: the control tube of enrichment broth without adding in 2-phenylethanol, sodium benzoate, and sodium propionate; and without inoculating Candida albicans;
The requirements for aseptic operation technique were strictly followed to prepare the suspension of organism. The colonies of each strain of Candida albicans organism were diluted with physiological saline respectively. The turbidities of the suspensions of Candida albicans organism were adjusted to 0.5 MCF (about 10^8 CFU/ml) by a turbidimeter. 1 milliliter of the 0.5 MCF organism suspension was added into 9 milliliters of enrichment broth. Each suspension was diluted for ten times to contain 10^7 CFU/ml of organisms.
the requirements for aseptic technique were strictly followed to take 100 microliters of the prepared organism suspension respectively and to add the suspension into the test tubes from a to h as well as the positive control tube. No organism suspension was added into the negative control tube i.
The above tubes were cultured in a biochemical incubator at 37° C. for 24 hours. Then the growth of Candida in each tube was observed and recorded.
Remark: “+” means the growth of organisms; “−” means no growth of organisms.

CC(=O)c1c([O-])cc(C)oc1=O.[Na+] [sodium dehydroacetate]
pH value ([1]; 0.005 % in test gel): 3.8
pH value ([1]; 0.010 % in test gel): 3.8
pH value ([1]; 0.015 % in test gel): 3.8
pH value ([1]; 0.020 % in test gel): 3.8
pH value ([1]; 0.025 % in test gel): 3.8
pH value ([1]; 0.030 % in test gel): 3.8
pH value ([1]; 0.035 % in test gel): 3.8
Smear G^+b ([2]; 0.005 % in test gel): G^+b+
Smear G^+b ([2]; 0.010 % in test gel): G^+b+
Smear G^+b ([2]; 0.015 % in test gel): G^+b+
Smear G^+b ([2]; 0.020 % in test gel): G^+b+
Smear G^+b ([2]; 0.025 % in test gel): G^+b+
Smear G^+b ([2]; 0.030 % in test gel): G^+b+
Smear G^+b ([2]; 0.035 % in test gel): G^+b+
Smear G^+c ([3]; 0.005 % in test gel): G^+c++
inhibition effect on the growth of Lactococcus lactis ([3]; 0.005 to 0.035 percent): little inhibition effect
Smear G^+c ([3]; 0.010 % in test gel): G^+c++
Smear G^+c ([3]; 0.015 % in test gel): G^+c++
Smear G^+c ([3]; 0.020 % in test gel): G^+c++
Smear G^+c ([3]; 0.025 % in test gel): G^+c++
Smear G^+c ([3]; 0.030 % in test gel): G^+c++
Smear G^+c ([3]; 0.035 % in test gel): G^+c++

CC(=O)[O-].[Na+] [sodium acetate]
pH value ([1]; 0.1 % in test gel): <3.8
pH value ([1]; 0.2 % in test gel): <3.8
pH value ([1]; 0.3 % in test gel): <3.8
pH value ([1]; 0.4 % in test gel): <3.8
pH value ([1]; 0.5 % in test gel): <3.8
pH value ([1]; 0.6 % in test gel): 3.8
pH value ([1]; 0.7 % in test gel): 3.8
pH value ([1]; 0.8 % in test gel): 3.8-4.1
Smear G^+b ([2]; 0.1 % in test gel): G^+b+
Smear G^+b ([2]; 0.2 % in test gel): G^+b+
Smear G^+b ([2]; 0.3 % in test gel): G^+b+
Smear G^+b ([2]; 0.4 % in test gel): G^+b+
Smear G^+b ([2]; 0.5 % in test gel): G^+b+
Smear G^+b ([2]; 0.6 % in test gel): G^+b+
Smear G^+b ([2]; 0.7 % in test gel): G^+b+
Smear G^+b ([2]; 0.8 % in test gel): G^+b+
Smear G^+c ([3]; 0.1 % in test gel): G^+c++
inhibition effect on the growth of Lactococcus lactis ([3]; 0.1 to 0.8 percent): little inhibition effect
Smear G^+c ([3]; 0.2 % in test gel): G^+c++
Smear G^+c ([3]; 0.3 % in test gel): G^+c++
Smear G^+c ([3]; 0.4 % in test gel): G^+c++
Smear G^+c ([3]; 0.5 % in test gel): G^+c++
Smear G^+c ([3]; 0.6 % in test gel): G^+c++
Smear G^+c ([3]; 0.7 % in test gel): G^+c++
Smear G^+c ([3]; 0.8 % in test gel): G^+c++

O=C([O-])c1ccccc1.[Na+] [d. 0.025% sodium benzoate]
growth of Candida albicans, strain 1 [4]: +
growth of Candida albicans, strain 2 [4]: +
growth of Candida albicans, strain 3 [4]: +
growth of Candida albicans, strain 4 [4]: +
growth of Candida albicans, strain 5 [4]: +
growth of Candida albicans, strain 6 [4]: +
growth of Candida albicans, strain 7 [4]: +
growth of Candida albicans, strain 8 [4]: +
growth of Candida albicans, strain 9 [4]: +

OCCc1ccccc1 [e. 0.050% 2-phenylethanol]
growth of Candida albicans, strain 1 [4]: −
growth of Candida albicans, strain 2 [4]: +
growth of Candida albicans, strain 3 [4]: +
growth of Candida albicans, strain 4 [4]: +
growth of Candida albicans, strain 5 [4]: +
growth of Candida albicans, strain 6 [4]: +
growth of Candida albicans, strain 7 [4]: −
growth of Candida albicans, strain 8 [4]: +
growth of Candida albicans, strain 9 [4]: +
